Experimental data as given in ChEMBL document CHEMBL5380835, “Discovery of Clinically Used Octenidine as NRAS Repressor That Effectively Inhibits NRAS-Mutant Melanoma” (J Med Chem, 2023).
Calls of active or inactive are those of the source. No cut-off for these calls is given here.

Assays:
[1] = tested on: SK-MEL-2; experiment: Antiproliferative activity against human SK-MEL-2 cells assessed as inhibition of colony formation at 1.5 uM measured after 10 days by crystal violet staining based assay; assay type: functional, cell-based; details: time 10.0 day
[2] = tested on: SK-MEL-2; experiment: Synergistic cytotoxicity against human SK-MEL-2 cells expressing NRAS mutant assessed as combination index measured for 48 hrs in presence of Rapamycin by MTT assay; assay type: functional
[3] = tested on: SK-MEL-2; experiment: Synergistic cytotoxicity against human SK-MEL-2 cells expressing NRAS mutant assessed as combination index measured for 48 hrs in presence of MK2206 by MTT assay; assay type: functional
[4] = tested on: SK-MEL-2; experiment: Antitumor activity against human SK-MEL-2 cells xenografted in BALB/c nude mouse assessed as tumor growth inhibition at 5 mg/kg/day, ip by electronic caliper method; assay type: functional, organism-based; details: time 30.0 day, TDE = time-dependent effect
[5] = tested on: SK-MEL-2; experiment: Antitumor activity against human SK-MEL-2 cells xenografted in BALB/c nude mouse assessed as reduction in tumor weight at 5 mg/kg/day, ip administered for 30 days by electronic caliper method; assay type: functional, organism-based; details: time 30.0 day
[6] = tested on: SK-MEL-2; experiment: Antitumor activity against human SK-MEL-2 cells xenografted in BALB/c nude mouse assessed as T/C ratio at 5 mg/kg/day, ip administered for 30 days relative to control; assay type: functional; details: time 30 day
[7] = tested on: SK-MEL-2; experiment: Antitumor activity against human SK-MEL-2 cells xenografted in BALB/c nude mouse assessed as tumor growth inhibition at 5 mg/kg/day, ip administered for 30 days relative to control; assay type: functional; details: SK-MEL-2, 720 h, time 30 day, read-out: TGI

## Cn1cnc2c(F)c(Nc3ccc(Br)cc3F)c(C(=O)NOCCO)cc21 [BINIMETINIB]
[1]
  inhibition: Active
[2]
  CI: 0.5
[3]
  CI: 0.5
[4]
  Activity: Tde
[5]
  Activity: Active
[6]
  T/C: 24.8%
[7]
  inhibition in vivo at 5 mg/kg/day: 70.4%
